pIC50: −log10 of the molar value.
Legend:
T. gondii = experiment: Parasite growth inhibition, modified [3H]-uracil uptake assay in infected HFF cell monolayers; type: cell-based, Toxoplasma gondii; conditions: Toxoplasma gondii; uracil uptake assay, infected HFF cell monolayers; read-out: IC50
Source text: (§1) Host cells and parasite cultures—RH strain or RH ΔHXGPRT strain tachyzoites of T. gondii were maintained by serial passage in confluent monolayers of human foreskin fibroblasts (“HFF”) as described (Roos, D. S. et al., 1994, Methods Cell Biol. 45:27-63). A modified [^3H]-uracil uptake assay (Pfefferkorn, E. R. and Pfefferkorn, L. C., 1977, J. Protozool. 24:449-453) adapted for use in 96-well scintillation plates (Cytostar-T, Amersham; Piscataway, N.J.) was used to measure parasite growth inhibition. Each well, previously seeded with HFF cells, was inoculated with T. gondii tachyzoites (2×10^4) in 200 μl of growth media containing 2 μCi [5,6]-^3H-uracil (Perkin-Elmer NEN; Boston, Mass.) and serially diluted compound. Following incubation at 37° C. for 36-48 hours, tritium-incorporation into host cell monolayers was directly counted in a microplate scintillation counter (MicroBeta, PerkinElmer-Wallac).
The only other CDK inhibitor with sub-μM activity against T. gondii was indirubin-3′-monoxime, which gave an IC50 value of 500 nM.

TgCDPK1 = target: T1, TgCDPK1 (Toxoplasma gondii, UniProt Q9BJF5); experiment: CDPK assay with Syntide-2, T. gondii CDPK1; type: biochemical; conditions: 0.2 μM hymenialdisine or 1 μM purvalanol B; CKI phosphopeptide substrate
T1 construct: The TgCDPK1 open reading frame was amplified by PCR from a Toxoplasma cDNA library; made in house
Procedure: (§2) Protein kinase assays—Casein kinase activity was assayed essentially as described (Donald, R. G. K. et al., 2002, supra) using 96-well phosphocellulose plates (MAPH-NOB, Millipore; Billerica, Mass.) to capture ^33P-phosphorylated peptide or casein substrates. Kinase reactions were carried out in 40 μl volumes containing 25 mM Hepes, pH 7.4, 10 mM MgCl2, 20 mM β-glycerophosphate, 1 mM DTT, 250 μM substrate, 1 mg/mL BSA, 2 μM ATP, and 0.01 μM [γ-^33P]ATP (Perkin-Elmer, 3000 Ci/mmol). The reactions were initiated by the addition of enzyme and incubated at room temperature for 60 min. Casein (5% solution), partially dephosphorylated α-casein and β-casein were obtained from Sigma.
(§3) A variety of commercially available peptide substrates were evaluated. From Calbiochem (San Diego, Calif.): CKI substrate (RRKDLHDDEEDEAMSITA; SEQ ID NO:13); CKII substrate (RRADDSDDDDD; SEQ ID NO:14); Syntide-2 substrate (PLARTLSVAGLPGKK; SEQ ID NO:15); CaM kinase II substrate (281-291) (MHKNETVECLK; SEQ ID NO:16). From Promega: CKI substrate (DDDEESITRR; SEQ ID NO:17) and kemptide (LRRASLG; SEQ ID NO:18). From New England Biolabs (Beverly, Mass.): CKI phosphopeptide substrate (KRRRALS(p)VASLPGL; SEQ ID NO:19), and CKII substrate (RRREEETEEE; SEQ ID NO:20). PKG assays were performed with kemptide as substrate and 10 μM cGMP. CDPK was assayed with Syntide-2 substrate and in the presence of 100 μM CaCl2.
Purification of recombinant TgCDPK1 and TgPKG—The TgCDPK1 open reading frame was amplified by PCR from a Toxoplasma cDNA library, using primers based on the published sequence (Kieschnick et al., 2001, supra): sense primer, […] (SEQ ID NO:44); and, antisense primer, […] (SEQ ID NO:45). A C-terminal FLAG epitope tag was appended to the TgCDPK1 open reading frame by an additional round of PCR amplification (KOD polymerase) and the resulting DNA fragment was sub-cloned into a tubulin promoter expression vector (Donald and Liberator, 2002, supra). […]

T. gondii tachyzoites = experiment: [3H]-uracil uptake assay of parasite growth inhibition in infected HFF cell monolayers; type: cell-based, Toxoplasma gondii; conditions: infected HFF cell monolayers, 36-48 hours; read-out: IC50 against T. gondii in the uracil uptake assay
Source text: as §1

EtCKIα = EtCKIα (Eimeria tenella, UniProt Q6QNL9); experiment: Casein kinase assay, partially purified native EtCKIα; type: biochemical; conditions: native enzyme
Procedure: as §2, §3
Partial purification of native EtCKIα—The inability to stably express recombinant EtCKIα in T. gondii provided impetus to purify native enzyme from E. tenella parasites (slide 5). A lysate was prepared from 2×10^10 unsporulated oocysts using previously published procedures (Gurnett, A. M. et al., 2002, supra). The first two steps of the purification scheme used were essentially scaled-up from the method described for the purification of native TgCKIα. The lysate was subjected to preparative HiLoad Q anion-exchange chromatography and fractions eluted with a NaCl gradient (0-1 M NaCl). […]

Sequence of EtCKIα (Q6QNL9 whole entry): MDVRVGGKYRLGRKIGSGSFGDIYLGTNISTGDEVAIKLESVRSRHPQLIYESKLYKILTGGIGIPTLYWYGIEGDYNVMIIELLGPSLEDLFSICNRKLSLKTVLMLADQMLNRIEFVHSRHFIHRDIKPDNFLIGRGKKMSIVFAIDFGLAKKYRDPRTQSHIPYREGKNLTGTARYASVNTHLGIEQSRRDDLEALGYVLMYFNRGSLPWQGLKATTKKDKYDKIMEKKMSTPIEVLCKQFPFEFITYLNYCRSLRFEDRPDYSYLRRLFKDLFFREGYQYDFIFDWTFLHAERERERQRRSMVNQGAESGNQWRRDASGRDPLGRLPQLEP
T1 sequence (Q9BJF5 entry or part of it): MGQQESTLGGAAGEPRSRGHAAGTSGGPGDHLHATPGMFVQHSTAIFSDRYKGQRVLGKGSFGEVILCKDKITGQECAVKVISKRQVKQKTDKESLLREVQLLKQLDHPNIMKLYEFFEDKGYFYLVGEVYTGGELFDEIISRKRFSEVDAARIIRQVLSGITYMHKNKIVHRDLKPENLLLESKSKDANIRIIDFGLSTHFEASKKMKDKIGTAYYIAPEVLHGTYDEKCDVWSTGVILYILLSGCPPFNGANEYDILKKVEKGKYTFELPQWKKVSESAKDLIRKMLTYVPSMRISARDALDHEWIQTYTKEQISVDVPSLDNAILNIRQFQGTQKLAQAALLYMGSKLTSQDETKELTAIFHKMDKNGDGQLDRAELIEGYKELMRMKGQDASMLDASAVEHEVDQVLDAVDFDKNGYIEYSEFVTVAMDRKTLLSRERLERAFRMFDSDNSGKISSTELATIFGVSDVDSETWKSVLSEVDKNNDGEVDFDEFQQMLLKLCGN

## CC(C)[C@H](CO)Nc1nc(Nc2ccc(C(=O)O)c(Cl)c2)c2ncn(C(C)C)c2n1 [purvalanol B]
T. gondii
  pIC50: 6.59
TgCDPK1
  sensitivity of phosphopeptide kinase activity of fractions 14 and 15 (TgCDPK1): partial sensitivity
T. gondii tachyzoites
  pIC50: 6.59
EtCKIα
  activity against / sensitivity of EtCKIα: good activity
